Broadly, the IC50 is the point on the concentration scale where inhibition reaches its midpoint. Usually inhibition stands for the share of the control response that was lost under treatment.

Here are results for one molecule from ChEMBL document CHEMBL5113400, “Design, synthesis, and biological evaluation of trizole-based heteroaromatic derivatives as Bcr-Abl kinase inhibitors” (Eur J Med Chem, 2022).

Activity calls are given as the source filed them. No cut-off for these calls is given here.

For data set [1], the target named is Bcr/Abl fusion protein (Homo sapiens, UniProt P00519). The data set can be described thus: Inhibition of wild type Bcr-Abl (unknown origin) incubated for 1 hr in presence of ATP by ADP-Glo kinase assay. It is filed as protein assay.
Data set [2] deals with Bcr/Abl fusion protein (Homo sapiens, UniProt P00519, T315I). The data set can be described thus: Inhibition of Bcr-Abl T315I mutant (unknown origin) incubated for 1 hr in presence of ATP by ADP-Glo kinase assay. It is filed as protein assay.
For data set [3], the system named is K562. The data set can be described thus: Antiproliferative activity against human K562 cells assessed as inhibition of cell growth incubated for 48 hrs by MTT assay. It is filed as functional, cell-based. To be noted: K562, 48 h.
Data set [4] concerns BaF3. The data set can be described thus: Antiproliferative activity against mouse BaF3 cells expressing Bcr-Abl T315I mutant assessed as inhibition of cell growth at 30 uM incubated for 72 hrs by CellTiter-Glo luminescent assay. Type of data set: functional.
The subject of the next data set is K562/Adr. In words: Antiproliferative activity against human Adriamycin-resistant K562/Adr cells assessed as inhibition of cell growth incubated for 48 hrs by MTT assay. Type of data set: functional, cell-based.
A further data set deals with K-562R. The data set can be described thus: Antiproliferative activity against human K-562R cells expressing Bcr-Abl T315I mutant assessed as inhibition of cell growth incubated for 48 hrs by MTT assay. It is filed as functional, cell-based.
Another data set has as its system EA.hy 926. The data set can be described thus: Cytotoxicity against human EA.hy 926 cells assessed as inhibition of cell growth upto 100 uM incubated for 48 hrs by MTT assay. Type of data set: toxicity, cell-based. To be noted: ea.hy 926, 48 h. (Formazan colour is commonly taken as a measure of viable cells.)
Data set [5] relates to BaF3. In words: Antiproliferative activity against mouse BaF3 cells expressing wild type Bcr-Abl assessed as inhibition of cell growth incubated for 72 hrs by CellTiter-Glo luminescent assay. Type of data set: functional, cell-based. To be noted: BaF3, 72 h.
The target in data set [6] is Platelet-derived growth factor receptor alpha (Homo sapiens) (UniProt P16234). The data set can be described thus: Inhibition of recombinant human PDGFRalpha at 10 uM for 10 mins followed by substrate addition in presence of ATP and measured after 100 mins by ADP-Glo kinase assay. To be noted: time 110.0 min. On the technique in general: In ADP-Glo the light output rises with the ADP produced.

Data set [7] addresses Dual specificity tyrosine-phosphorylation-regulated kinase 1B (Homo sapiens) (UniProt Q9Y463). In words: Inhibition of recombinant human DYRK1B at 10 uM for 10 mins followed by substrate addition in presence of ATP and measured after 100 mins by ADP-Glo kinase assay. To be noted: time 110.0 min.
Data set [8] concerns the target BDNF/NT-3 growth factors receptor (Homo sapiens) (UniProt Q16620). The data set can be described thus: Inhibition of recombinant human TRKB at 10 uM for 10 mins followed by substrate addition in presence of ATP and measured after 60 mins by HTRF assay. To be noted: time 70.0 min.
Data set [9] shares this target. In words: Inhibition of recombinant human TRKB at 10 uM for 10 mins followed by substrate addition in presence of ATP and measured after 100 mins by ADP-Glo kinase assay. To be noted: time 110.0 min.
Data set [10] concerns the target Vascular endothelial growth factor receptor 2 (Homo sapiens) (UniProt P35968). The data set can be described thus: Inhibition of recombinant human KDR at 10 uM for 10 mins followed by substrate addition in presence of ATP and measured after 60 mins by HTRF assay. To be noted: time 70.0 min.
In data set [11] the target is T1, Tyrosine-protein kinase ITK/TSK (Homo sapiens) (UniProt Q08881).
T1 sequence (whole entry): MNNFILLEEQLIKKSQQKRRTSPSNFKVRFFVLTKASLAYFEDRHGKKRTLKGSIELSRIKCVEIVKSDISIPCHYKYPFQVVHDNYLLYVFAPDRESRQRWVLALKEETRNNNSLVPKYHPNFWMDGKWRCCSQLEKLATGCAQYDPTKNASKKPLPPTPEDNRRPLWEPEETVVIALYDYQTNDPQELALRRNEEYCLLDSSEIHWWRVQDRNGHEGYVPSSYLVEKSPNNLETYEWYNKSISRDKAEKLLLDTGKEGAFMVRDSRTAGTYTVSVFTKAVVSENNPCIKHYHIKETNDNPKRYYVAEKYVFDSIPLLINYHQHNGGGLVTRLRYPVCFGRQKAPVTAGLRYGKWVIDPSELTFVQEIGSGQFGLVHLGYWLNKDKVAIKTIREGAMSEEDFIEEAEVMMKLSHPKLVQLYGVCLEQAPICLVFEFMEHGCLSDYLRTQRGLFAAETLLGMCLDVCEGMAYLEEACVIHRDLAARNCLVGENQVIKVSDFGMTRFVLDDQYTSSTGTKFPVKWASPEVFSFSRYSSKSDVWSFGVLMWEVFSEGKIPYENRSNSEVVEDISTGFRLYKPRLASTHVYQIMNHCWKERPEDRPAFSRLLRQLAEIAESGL
In words: Inhibition of recombinant human ITK at 10 uM for 10 mins followed by substrate addition in presence of ATP and measured after 100 mins by ADP-Glo kinase assay. To be noted: time 110.0 min.

Data set [12] deals with K562. In words: Induction of apoptosis in human K562 cells assessed as early apoptotic cells at 1 uM incubated for 48 hrs by Annexin V-FITC/PI staining based flow cytometry analysis (Rvb= 4.35%). It is filed as functional.
The subject of data set [13] is K562. In words: Induction of apoptosis in human K562 cells assessed as early apoptotic cells at 10 uM incubated for 48 hrs by Annexin V-FITC/PI staining based flow cytometry analysis (Rvb= 4.35%). It is filed as functional. For orientation: A flow cytometer gives signals particle by particle.
For data set [14], the system named is K562. In words: Induction of apoptosis in human K562 cells assessed as late apoptotic cells at 5 uM incubated for 48 hrs by Annexin V-FITC/PI staining based flow cytometry analysis (Rvb= 14.66%). Type of data set: functional.
In data set [15] the test system is K562. The data set can be described thus: Induction of apoptosis in human K562 cells assessed as late apoptotic cells at 10 uM incubated for 48 hrs by Annexin V-FITC/PI staining based flow cytometry analysis (Rvb= 14.66%). It is filed as functional.
In data set [16] the test system is K562. The data set can be described thus: Induction of apoptosis in human K562 cells assessed as viable cells at 1 uM incubated for 48 hrs by Annexin V-FITC/PI staining based flow cytometry analysis (Rvb=80.89%). It is filed as functional. To be noted: read-out: Activity.
Data set [17] concerns K562. The data set can be described thus: Induction of apoptosis in human K562 cells assessed as viable cells at 5 uM incubated for 48 hrs by Annexin V-FITC/PI staining based flow cytometry analysis (Rvb=80.89%). To be noted: read-out: Activity. It is filed as functional.
Data set [18] has as its system K562. In words: Induction of cell cycle arrest in human K562 cells assessed as reduction in G0/G1 phase at 1 to 10 uM incubated for 48 hrs by PI staining based flow cytometry. To be noted: dose 1-10 µM. Type of data set: functional.
Data set [19] relates to K562. The data set can be described thus: Induction of cell cycle arrest in human K562 cells assessed as accumulation at G2/M phase at 1 to 10 uM incubated for 48 hrs by PI staining based flow cytometry (Rvb= 12.23%). To be noted: dose 1-10 µM. Type of data set: functional.
Data set [20] has as its target Bcr/Abl fusion protein (Homo sapiens) (UniProt P00519+P11274). The data set can be described thus: Inhibition of Bcr-Abl phosphorylation at Tyr245 residue in human K562 cells expressing wild type Bcr-Abl at 0.1 to 15 uM measured after 48 hrs by Western blot analysis. It is filed as cell-based. To be noted: dose 0.1-15 µM, DDE = dose-dependent effect.

Chain of BDNF/NT-3 growth factors receptor (Homo sapiens) (Q16620 32-822 limits assumed): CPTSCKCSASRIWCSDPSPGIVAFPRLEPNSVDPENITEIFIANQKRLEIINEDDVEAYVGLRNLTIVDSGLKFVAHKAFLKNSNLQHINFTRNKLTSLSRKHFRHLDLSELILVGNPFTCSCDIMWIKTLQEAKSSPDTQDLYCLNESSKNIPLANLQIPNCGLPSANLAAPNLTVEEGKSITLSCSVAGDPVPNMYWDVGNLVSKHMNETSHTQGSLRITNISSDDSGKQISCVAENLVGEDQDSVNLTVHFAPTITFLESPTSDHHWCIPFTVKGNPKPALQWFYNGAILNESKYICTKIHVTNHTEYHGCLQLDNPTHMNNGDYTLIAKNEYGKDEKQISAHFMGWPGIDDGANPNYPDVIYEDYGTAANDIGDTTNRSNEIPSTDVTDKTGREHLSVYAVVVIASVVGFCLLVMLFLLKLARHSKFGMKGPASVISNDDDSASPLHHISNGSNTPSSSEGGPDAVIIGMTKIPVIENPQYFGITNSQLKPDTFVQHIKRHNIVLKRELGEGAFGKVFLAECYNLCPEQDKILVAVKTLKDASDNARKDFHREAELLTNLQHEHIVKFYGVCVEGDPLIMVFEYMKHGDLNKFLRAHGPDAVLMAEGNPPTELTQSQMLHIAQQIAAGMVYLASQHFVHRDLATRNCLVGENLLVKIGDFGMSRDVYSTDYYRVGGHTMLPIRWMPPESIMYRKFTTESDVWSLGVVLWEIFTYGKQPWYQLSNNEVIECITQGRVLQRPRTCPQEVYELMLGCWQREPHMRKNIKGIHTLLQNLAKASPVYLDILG
Chain of Platelet-derived growth factor receptor alpha (Homo sapiens) (P16234 whole entry): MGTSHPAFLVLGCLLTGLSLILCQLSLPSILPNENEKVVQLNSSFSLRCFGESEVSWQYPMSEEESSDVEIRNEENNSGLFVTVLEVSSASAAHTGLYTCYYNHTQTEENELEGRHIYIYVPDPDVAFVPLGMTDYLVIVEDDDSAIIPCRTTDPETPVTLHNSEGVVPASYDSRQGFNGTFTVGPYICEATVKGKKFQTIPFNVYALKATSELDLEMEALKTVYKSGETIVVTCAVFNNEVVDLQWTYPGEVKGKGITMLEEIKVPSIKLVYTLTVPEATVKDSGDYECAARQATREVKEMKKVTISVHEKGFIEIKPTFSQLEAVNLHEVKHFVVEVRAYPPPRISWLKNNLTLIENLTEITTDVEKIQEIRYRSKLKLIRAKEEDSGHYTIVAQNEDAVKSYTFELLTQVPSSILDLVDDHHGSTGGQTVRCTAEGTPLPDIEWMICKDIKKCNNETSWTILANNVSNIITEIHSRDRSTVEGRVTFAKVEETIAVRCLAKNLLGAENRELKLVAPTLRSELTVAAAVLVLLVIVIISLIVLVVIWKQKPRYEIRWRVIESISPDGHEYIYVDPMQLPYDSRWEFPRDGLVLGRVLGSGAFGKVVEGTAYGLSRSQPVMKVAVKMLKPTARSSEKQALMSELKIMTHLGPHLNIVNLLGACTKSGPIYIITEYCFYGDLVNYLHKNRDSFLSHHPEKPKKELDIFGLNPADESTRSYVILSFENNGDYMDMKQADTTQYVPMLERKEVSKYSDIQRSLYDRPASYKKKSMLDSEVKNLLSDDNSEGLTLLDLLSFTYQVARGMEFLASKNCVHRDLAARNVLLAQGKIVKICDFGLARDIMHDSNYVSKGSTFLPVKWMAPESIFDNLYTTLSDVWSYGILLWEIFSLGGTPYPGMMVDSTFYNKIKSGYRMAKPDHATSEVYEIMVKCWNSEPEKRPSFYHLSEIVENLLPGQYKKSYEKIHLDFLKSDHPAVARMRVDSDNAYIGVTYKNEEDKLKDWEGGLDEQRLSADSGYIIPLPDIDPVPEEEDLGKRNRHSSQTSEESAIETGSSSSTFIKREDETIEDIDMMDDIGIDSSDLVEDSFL
Chain of Vascular endothelial growth factor receptor 2 (Homo sapiens) (P35968 whole entry): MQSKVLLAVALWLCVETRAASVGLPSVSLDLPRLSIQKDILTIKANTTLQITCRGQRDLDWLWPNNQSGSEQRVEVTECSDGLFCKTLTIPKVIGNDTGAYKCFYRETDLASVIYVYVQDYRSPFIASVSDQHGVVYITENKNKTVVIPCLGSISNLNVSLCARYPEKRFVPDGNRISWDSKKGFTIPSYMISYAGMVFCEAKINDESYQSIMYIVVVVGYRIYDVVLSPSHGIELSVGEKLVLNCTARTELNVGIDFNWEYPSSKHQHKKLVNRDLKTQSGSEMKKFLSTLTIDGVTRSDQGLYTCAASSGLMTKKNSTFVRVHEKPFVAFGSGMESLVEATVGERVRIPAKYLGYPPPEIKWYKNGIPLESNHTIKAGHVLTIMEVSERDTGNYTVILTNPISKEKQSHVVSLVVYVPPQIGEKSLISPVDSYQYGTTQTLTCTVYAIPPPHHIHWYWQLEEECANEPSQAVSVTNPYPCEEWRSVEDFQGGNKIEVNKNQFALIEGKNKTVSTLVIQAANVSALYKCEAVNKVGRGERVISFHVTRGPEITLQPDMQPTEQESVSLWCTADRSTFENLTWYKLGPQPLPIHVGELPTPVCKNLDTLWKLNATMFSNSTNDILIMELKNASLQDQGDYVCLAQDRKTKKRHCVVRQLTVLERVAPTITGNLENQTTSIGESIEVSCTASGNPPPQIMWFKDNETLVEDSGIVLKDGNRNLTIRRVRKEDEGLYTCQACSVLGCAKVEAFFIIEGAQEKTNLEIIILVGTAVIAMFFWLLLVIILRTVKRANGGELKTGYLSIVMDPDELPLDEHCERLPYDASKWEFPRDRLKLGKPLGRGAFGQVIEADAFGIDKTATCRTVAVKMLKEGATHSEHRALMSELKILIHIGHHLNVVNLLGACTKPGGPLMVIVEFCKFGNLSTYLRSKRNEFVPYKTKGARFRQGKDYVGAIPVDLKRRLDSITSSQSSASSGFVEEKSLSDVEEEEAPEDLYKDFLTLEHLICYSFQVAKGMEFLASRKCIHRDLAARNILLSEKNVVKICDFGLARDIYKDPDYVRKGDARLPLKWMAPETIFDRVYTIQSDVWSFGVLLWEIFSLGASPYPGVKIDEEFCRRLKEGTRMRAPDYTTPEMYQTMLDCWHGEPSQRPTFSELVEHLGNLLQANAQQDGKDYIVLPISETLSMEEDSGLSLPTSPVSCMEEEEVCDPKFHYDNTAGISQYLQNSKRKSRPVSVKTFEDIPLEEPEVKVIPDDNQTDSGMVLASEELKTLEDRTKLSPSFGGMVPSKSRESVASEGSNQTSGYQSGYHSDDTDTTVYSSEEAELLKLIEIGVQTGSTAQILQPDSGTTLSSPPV
Chain of Dual specificity tyrosine-phosphorylation-regulated kinase 1B (Homo sapiens) (Q9Y463 whole entry, looked up): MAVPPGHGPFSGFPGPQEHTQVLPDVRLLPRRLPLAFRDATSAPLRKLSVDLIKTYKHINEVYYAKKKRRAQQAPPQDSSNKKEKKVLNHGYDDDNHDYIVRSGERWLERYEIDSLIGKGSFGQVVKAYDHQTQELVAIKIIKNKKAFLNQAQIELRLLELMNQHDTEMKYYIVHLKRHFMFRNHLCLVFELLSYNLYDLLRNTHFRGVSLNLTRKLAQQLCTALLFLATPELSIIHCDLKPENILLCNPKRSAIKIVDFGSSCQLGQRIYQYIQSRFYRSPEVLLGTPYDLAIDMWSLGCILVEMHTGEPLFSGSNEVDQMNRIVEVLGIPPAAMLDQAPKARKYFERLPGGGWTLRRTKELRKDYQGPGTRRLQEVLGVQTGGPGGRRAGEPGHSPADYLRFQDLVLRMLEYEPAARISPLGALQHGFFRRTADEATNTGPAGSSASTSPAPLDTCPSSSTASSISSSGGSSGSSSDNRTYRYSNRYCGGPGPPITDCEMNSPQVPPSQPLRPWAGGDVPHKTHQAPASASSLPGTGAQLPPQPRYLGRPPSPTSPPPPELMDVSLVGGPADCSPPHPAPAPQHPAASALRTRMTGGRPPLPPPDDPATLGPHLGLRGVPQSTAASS

On to `O=C(Nc1nc2ccc(-c3cn([C@@H]4CN[C@H](C(=O)Nc5ccc(Cl)cc5Cl)C4)nn3)nc2s1)C1CC1`, for which the 50% inhibitory concentration (IC50) at Bcr/Abl fusion protein [1] stood at 0.6 nM; at Bcr/Abl fusion protein [2], 190 nM; in the data set on K562 [3] it was 740 nM; in the data set on K562/Adr it was 2440 nM; with K-562R, 1910 nM; in the data set on BaF3 [5] it was 130 nM. In the data set on BaF3 [4], the inhibition at 30 µM came to 87.6%. The Activity entry in the data set on EA.hy 926 was “Non-Toxic”; in the data set on K562 [12], 3.59%; with K562 [13], 7.16%; in the data set with K562 [14], 29.63%; in the data set on K562 [15], 43.12%; in the data set on K562 [19] it was 37.12%. In addition, the inhibition in data set [6] is 87.9%; in [7] it was 68.4%; in data set [8], 54.3%; in data set [9], 54.3%; in data set [10] it was 47.7%; in data set [11], 41.1%. In addition, in [20], the inhibition result was “Dde”. Further, the viability at 1 µM in the data set on K562 [16] came out at 76.9%. For the same molecule, in the data set with K562 [17], the viability at 5 µM stood at 66.5%. In addition, the outcome in the data set on K562 [18] was Active.
